According to patent US11781160B2, “Methods for the production of methacrylates” (priority 2018, dated 2023):

Key:
E. coli MG1655 = assay: Growth in MSX medium with 20% (v/v) BMA, wild type; type: cell-based, Escherichia coli
[1] = system: E. coli MG1655 soxR(R20H); assay: Growth in MSX medium with 20% (v/v) BMA, single mutant; type: cell-based, Escherichia coli; settings: 20% (v/v) BMA added immediately after inoculation
[2] = system: gene transcription in strain 22; assay: Transcriptome analysis with added BMA, strain 22
Experimental: Transcriptome analysis was carried out to characterize transcriptional activity in mutant microorganisms using standard methods.
Sample Preparation • 1) Streak strains onto fresh MSX agar (15 g/L) plates directly from the cryostocks and incubate overnight at 37° C. • 2) Isolate single colonies and inoculate pre-cultures in MSX, using 50 ml shake flasks. Incubate overnight at 37° C. and 250 rpm. • 3) Inoculate cultures in MSX to an initial OD600 of 0.05, using 250 mL pyrex shake flasks with 24/29 neck join. Incubate at 37° C. and 250 rpm. Do 4 biological replicates (3 replicates for sequencing plus one backup)—4 flasks per strain. • 4) Seal shake flasks with sterile Suba seals. To monitor OD, take samples using a sterile syringe and needle after first swabbing the Suba seals with 70% ethanol. Monitor OD. • 5) When OD reaches 0.3, collect first sample for RNA extraction (“before” sample) into a pre-chilled falcon. Keep samples on ice. • 6) Immediately after, add 20% (v/v) BMA. Re-incubate cultures. • 7) Quickly process the samples according to the RNeasy kit protocol, until step 6 of protocol 1. Always keep samples on ice and store it at −80° C. until further use, if possible, flash freeze in liquid nitrogen it before storing. • 8) One hour after the first sample collection/BMA addition, collect the second sample for RNA extraction (“after” sample). Proceed as explained before. • 9) Continue to monitor the OD until the cultures reach 24 h. • To summarise, each strain tested will have 6 samples to send for sequencing, 3 collected right before the addition and 3 collected one hour after, plus 1 “back-up” for before and after, in case something goes wrong during extraction (8 samples total). Besides the WT strain with the addition of BMA, samples were also collected from a WT culture with no BMA, one hour after reaching OD of 0.3, as a control.
Transcription was compared for a double mutant and the wild-type in the presence and absence of BMA relative to the level in the wild type in the absence of BMA. For the avoidance of doubt the level in the table is the ratio of the level in the strain under the BMA exposure relative to the level in the wild type in the absence of added BMA.

Compound: C=C(C)C(=O)OCCCC [BMA, butyl 2-methylprop-2-enoate]
- Growth in the presence of BMA (E. coli MG1655; 20% (v/v) BMA added immediately after inoculation, WT): unable to grow
- Time after which growth was observed (E. coli MG1655; MSX medium containing 20% (v/v) BMA, 30 mL vials, 37° C., 250 rpm): 72 h
- Growth in the presence of BMA [1]: able to grow
- IdhA transcription level relative to wild type without BMA [2]: 25.80
- acrA transcription level relative to wild type without BMA [2]: 7.44
- acrB transcription level relative to wild type without BMA [2]: 7.17
- adiY transcription level relative to wild type without BMA [2]: 23.19
- ariR transcription level relative to wild type without BMA [2]: 12.95
- asr transcription level relative to wild type without BMA [2]: 225.15
- bssR transcription level relative to wild type without BMA [2]: 71.24
- ibpA transcription level relative to wild type without BMA [2]: 70.31
- ibpB transcription level relative to wild type without BMA [2]: 107.99
- narG transcription level relative to wild type without BMA [2]: 61.85
- nirB transcription level relative to wild type without BMA [2]: 20.40
- nirD transcription level relative to wild type without BMA [2]: 26.97
- pspA transcription level relative to wild type without BMA [2]: 47.39
- pspB transcription level relative to wild type without BMA [2]: 35.43
- pspD transcription level relative to wild type without BMA [2]: 38.90
- pspc transcription level relative to wild type without BMA [2]: 39.73
- raiA transcription level relative to wild type without BMA [2]: 52.61
- rmf transcription level relative to wild type without BMA [2]: 17.43
- soxS transcription level relative to wild type without BMA [2]: 3.66
- spy transcription level relative to wild type without BMA [2]: 45.77
- ybfA transcription level relative to wild type without BMA [2]: 36.33
- ybhG transcription level relative to wild type without BMA [2]: 21.92
- ybiH transcription level relative to wild type without BMA [2]: 16.75
- ydgU transcription level relative to wild type without BMA [2]: 94.74
- yhjx transcription level relative to wild type without BMA [2]: 902.70
- yibT transcription level relative to wild type without BMA [2]: 77.30
- ymgA transcription level relative to wild type without BMA [2]: 6.44
- ymgC transcription level relative to wild type without BMA [2]: 5.45
- ynfM transcription level relative to wild type without BMA [2]: 61.15
- yohk transcription level relative to wild type without BMA [2]: 19.75
